From US6093563A, “Chondroitin lyase enzymes” (IBEX Technologies R and D, Inc., priority 1994, dated 2000)

Tests used:
[1] = biological target: Flavobacterium heparinum chondroitinase AC (77,000 Dalton, purified, Sequence ID No. 2) (Pedobacter heparinus, UniProt Q59288); conditions: 0.1 mM reagent; 20 mM Tris buffer, pH 8.0; 0.5 mg/ml chondroitin sulfate A as substrate; none = 100
Description: (§1) Chondroitinase activity was determined by a modification of the spectrophotometric assay described by Yang, et al., J. Biol. Chem., 160(30):1849-1857, 1985. Chondroitinases degrade their respective substrates by an eliminative reaction resulting in the formation of 4,5-unsaturated sulfated disaccharides which absorb ultraviolet light at 232 nm. Reaction buffers contained 50 mM Tris, pH 8.0 and 0.5 mg/ml substrate; dermatan sulfate for chondroitinase B activity, chondroitin sulfate A for chondroitinase AC activity. A continuous spectrophotometric assay is carried out by transferring a 10 to 50 μl sample to a quartz cuvette and adding the reaction buffer to make a final volume of one ml. The cuvette is placed in a Beckman DU 640 spectrophotometer, controlled to maintain a constant temperature of 30° C., and the increase in absorbance at 232 nm monitored for three to five minutes. Activities are calculated using the molar extinction coefficient for chondroitin sulfate, 5.1×103 M^-1, and are expressed in international units, IU, where one IU is the amount of enzyme required to catalyze the formation of one μmole unsaturated product per minute.

[2] = biological target: Flavobacterium heparinum chondroitinase B (55,000 Dalton, purified, Sequence ID No. 4) (Pedobacter heparinus, UniProt Q46079); conditions: 0.1 mM reagent; 20 mM Tris buffer, pH 8.0; 0.5 mg/ml dermatan sulfate as substrate; none = 100
Description: as §1

Chain of Flavobacterium heparinum chondroitinase AC (77,000 Dalton, purified, Sequence ID No. 2) (Q59288 23-700): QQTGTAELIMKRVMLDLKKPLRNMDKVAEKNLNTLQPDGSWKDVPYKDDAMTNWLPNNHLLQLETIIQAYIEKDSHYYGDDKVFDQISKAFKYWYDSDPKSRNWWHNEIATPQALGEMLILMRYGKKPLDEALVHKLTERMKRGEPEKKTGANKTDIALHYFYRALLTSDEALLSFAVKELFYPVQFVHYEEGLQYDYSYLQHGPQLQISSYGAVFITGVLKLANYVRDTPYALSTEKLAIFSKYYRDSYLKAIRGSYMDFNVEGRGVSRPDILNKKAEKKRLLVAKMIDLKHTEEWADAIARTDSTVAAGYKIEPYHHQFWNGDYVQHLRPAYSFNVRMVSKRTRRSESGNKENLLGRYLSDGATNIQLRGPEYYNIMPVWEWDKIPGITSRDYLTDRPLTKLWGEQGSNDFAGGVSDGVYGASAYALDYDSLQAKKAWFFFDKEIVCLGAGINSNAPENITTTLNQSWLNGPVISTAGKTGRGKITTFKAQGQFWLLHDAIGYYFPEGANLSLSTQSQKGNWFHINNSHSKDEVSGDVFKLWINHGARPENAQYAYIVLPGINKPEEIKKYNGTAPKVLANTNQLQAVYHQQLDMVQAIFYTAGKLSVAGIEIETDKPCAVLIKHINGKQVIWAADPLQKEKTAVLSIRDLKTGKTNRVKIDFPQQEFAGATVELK
Chain of Flavobacterium heparinum chondroitinase B (55,000 Dalton, purified, Sequence ID No. 4) (Q46079 26-506): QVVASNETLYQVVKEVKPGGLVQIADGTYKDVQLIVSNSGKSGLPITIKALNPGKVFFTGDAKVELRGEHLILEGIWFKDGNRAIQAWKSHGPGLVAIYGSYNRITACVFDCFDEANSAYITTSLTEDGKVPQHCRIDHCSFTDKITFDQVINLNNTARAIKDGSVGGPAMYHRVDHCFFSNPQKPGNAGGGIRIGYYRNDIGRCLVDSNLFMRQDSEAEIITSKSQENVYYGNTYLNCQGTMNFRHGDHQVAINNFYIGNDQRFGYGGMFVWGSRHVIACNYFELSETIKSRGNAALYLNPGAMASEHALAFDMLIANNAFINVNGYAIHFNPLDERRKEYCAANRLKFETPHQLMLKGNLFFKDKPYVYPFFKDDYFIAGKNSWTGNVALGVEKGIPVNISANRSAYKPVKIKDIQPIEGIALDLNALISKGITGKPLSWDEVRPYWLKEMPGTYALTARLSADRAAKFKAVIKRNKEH

SMILES: O=C(O)CN(CCN(CC(=O)O)CC(=O)O)CC(=O)O [EDTA]
- chondroitinase AC relative activity (%) [1]: 97%
- chondroitinase B relative activity (%) [2]: 1%
